Experimental findings from ChEMBL document CHEMBL1132830, “Serotonin transporter inhibitors: synthesis and binding potency of 2'-methyl- and 3'-methyl-6-nitroquipazine” (Bioorg Med Chem Lett, 2000) are described below.

In assay [1] the target is Sodium-dependent serotonin transporter (Rattus norvegicus, UniProt P31652). In words: In vitro radioligand [3H]-paroxetine from rat cortical Serotonin transporter.
A short description of assay [2]: Equipotent molar ratio of compound to that of standard (compound 1) was evaluated.

Chain of Sodium-dependent serotonin transporter (P31652 whole entry): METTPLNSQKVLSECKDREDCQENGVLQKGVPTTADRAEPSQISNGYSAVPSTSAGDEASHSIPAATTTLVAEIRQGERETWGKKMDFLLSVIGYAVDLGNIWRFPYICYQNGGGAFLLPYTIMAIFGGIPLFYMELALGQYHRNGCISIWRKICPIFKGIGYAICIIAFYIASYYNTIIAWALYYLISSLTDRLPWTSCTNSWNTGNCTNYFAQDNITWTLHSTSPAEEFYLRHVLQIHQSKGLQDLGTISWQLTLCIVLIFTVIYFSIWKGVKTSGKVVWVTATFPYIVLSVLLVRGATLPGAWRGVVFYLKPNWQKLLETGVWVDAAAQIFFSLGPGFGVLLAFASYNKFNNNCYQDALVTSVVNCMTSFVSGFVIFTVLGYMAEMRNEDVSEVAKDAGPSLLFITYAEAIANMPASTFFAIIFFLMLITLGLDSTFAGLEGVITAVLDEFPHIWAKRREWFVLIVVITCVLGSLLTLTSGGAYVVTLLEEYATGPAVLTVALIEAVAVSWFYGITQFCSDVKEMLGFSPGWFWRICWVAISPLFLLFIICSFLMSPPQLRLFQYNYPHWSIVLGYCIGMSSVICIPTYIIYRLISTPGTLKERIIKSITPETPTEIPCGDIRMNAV

Take `CC1CN(c2ccc3cc([N+](=O)[O-])ccc3n2)CCN1` (configuration not stated): the affinity in assay [1] corresponds to a Ki of 4.56 nM. In addition, the Ratio in assay [2] is 28.

As for `O=[N+]([O-])c1ccc2nc(N3CCNCC3)ccc2c1` [6-NITROQUIPAZINE], in assay [1], the Ki (in general, a measure of affinity in units of concentration, obtained from inhibition or displacement) was 0.163 nM. For the same compound, the Ratio in assay [2] is 1.

For the compound `CC1CNCCN1c1ccc2cc([N+](=O)[O-])ccc2n1` (configuration not stated), affinity in assay [1] was put at a Ki of 0.081 nM. The Ratio in assay [2] stood at 0.49.

In the case of `O=[N+]([O-])c1ccc2nc(N3CCNCC3)ccc2c1I`, the Ki in assay [1] came to 0.19 nM.
